PubChem BioAssay AID248 (DTP/NCI, 2004)
Values joined by “and” are separate entries in the source; they are usually repeats but may differ in a detail not shown here. Identical values can stand only once. Inconclusive results and toxic doses are left out. Cut-off read from the data, not from the text of the source: active = T/C of 150% or more; inactive = T/C below 125%.

Test system: L1210 leukemia ip in BDF1 mice, survival T/C
Test: NCI In Vivo Anticancer Drug Screen. Data for tumor model L1210 Leukemia (intraperitoneal) in B6D2F1 (BDF1) mice
Conditions: endpoint: mean survival time, higher = longer survival
How it was run: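 Tumor was transplanted into mice, which were then dosed with test compound or vehicle alone. Survival was recorded for each group, and the treated figure was expressed relative to the control figure.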

[1] = dose: 100.0 mg/kg/injection, schedule: Q04DX003 (ip), vehicle: Klucel (hydroxypropylcellulose) (HPC)
[2] = dose: 200.0 mg/kg/injection, schedule: Q04DX003 (ip), vehicle: Klucel (hydroxypropylcellulose) (HPC)
[3] = dose: 100.0 mg/kg/injection, schedule: Q04DX003 (ip), vehicle: saline
[4] = dose: 200.0 mg/kg/injection, schedule: Q04DX003 (ip), vehicle: saline
[5] = dose: 400.0 mg/kg/injection, schedule: Q04DX003 (ip), vehicle: saline
[6] = dose: 400.0 mg/kg/injection, schedule: Q04DX003 (ip), vehicle: Klucel (hydroxypropylcellulose) (HPC)

Measured: T/C

CCCCCCCC(=O)N(CC(C)C)CC(C)C
inactive: dose: 100.0 mg/kg/injection, schedule: Q01DX001 (ip), vehicle: carboxymethylcellulose (CMC) 102 % of control | dose: 100.0 mg/kg/injection, schedule: Q01DX009 (ip), vehicle: carboxymethylcellulose (CMC) 97 % of control | dose: 100.0 mg/kg/injection, schedule: Q04DX002 (ip), vehicle: carboxymethylcellulose (CMC) 101 % of control and 102 % of control | dose: 100.0 mg/kg/injection, schedule: Q04DX003 (ip), vehicle: carboxymethylcellulose (CMC) 97 % of control | dose: 200.0 mg/kg/injection, schedule: Q01DX001 (ip), vehicle: carboxymethylcellulose (CMC) 96 % of control | dose: 200.0 mg/kg/injection, schedule: Q01DX009 (ip), vehicle: carboxymethylcellulose (CMC) 93 % of control and 98 % of control | dose: 200.0 mg/kg/injection, schedule: Q04DX002 (ip), vehicle: carboxymethylcellulose (CMC) 97 % of control and 102 % of control | dose: 200.0 mg/kg/injection, schedule: Q04DX003 (ip), vehicle: carboxymethylcellulose (CMC) 97 % of control | dose: 400.0 mg/kg/injection, schedule: Q01DX001 (ip), vehicle: carboxymethylcellulose (CMC) 91 % of control | dose: 400.0 mg/kg/injection, schedule: Q04DX002 (ip), vehicle: carboxymethylcellulose (CMC) 94 % of control | dose: 400.0 mg/kg/injection, schedule: Q04DX003 (ip), vehicle: carboxymethylcellulose (CMC) 90 % of control

CC(=O)Nc1cccc2nsnc12
inactive: [1] 100 % of control | [2] 93 % of control

Oc1ccc2c(ccc3ccc4ccccc4c32)c1
inactive: dose: 100.0 mg/kg/injection, schedule: Q01DX001 (ip), vehicle: alcohol 103 % of control | dose: 200.0 mg/kg/injection, schedule: Q01DX001 (ip), vehicle: alcohol 100 % of control | dose: 400.0 mg/kg/injection, schedule: Q01DX001 (ip), vehicle: alcohol 95 % of control

O=C1CC(c2c[nH]c3nccnc23)NN1 (stereo not drawn)
inactive: dose: 6.25 mg/kg/injection, schedule: Q01DX009 (ip), vehicle: water 100 % of control | dose: 12.5 mg/kg/injection, schedule: Q01DX009 (ip), vehicle: water 100 % of control | dose: 25.0 mg/kg/injection, schedule: Q01DX009 (ip), vehicle: water 99 % of control | dose: 50.0 mg/kg/injection, schedule: Q01DX009 (ip), vehicle: water 105 % of control | dose: 100.0 mg/kg/injection, schedule: Q01DX009 (ip), vehicle: water 94 % of control | dose: 200.0 mg/kg/injection, schedule: Q01DX009 (ip), vehicle: water 89 % of control

CC(=O)OCCc1ccc(Cl)cc1
inactive: dose: 100.0 mg/kg/injection, schedule: Q04DX002 (ip), vehicle: saline with Tween-80 93 % of control | dose: 200.0 mg/kg/injection, schedule: Q04DX002 (ip), vehicle: saline with Tween-80 96 % of control | dose: 400.0 mg/kg/injection, schedule: Q04DX002 (ip), vehicle: saline with Tween-80 100 % of control

CC(C)(C)CC(C)(C)N(CSc1ccc2ccccc2c1)CSc1ccc2ccccc2c1
inactive: dose: 100.0 mg/kg/injection, schedule: Q01DX001 (ip), vehicle: saline 98 % of control | dose: 200.0 mg/kg/injection, schedule: Q01DX001 (ip), vehicle: saline 98 % of control | dose: 400.0 mg/kg/injection, schedule: Q01DX001 (ip), vehicle: saline 91 % of control

CN=C(NC)c1ccc(NC(=O)Nc2ccc(C)c(NC(=O)Nc3ccc(C(=NC)NC)cc3)c2)cc1
inactive: dose: 4.5 mg/kg/injection, schedule: Q01DX Z (ip), vehicle: water 98 % of control | dose: 9.0 mg/kg/injection, schedule: Q01DX Z (ip), vehicle: water 98 % of control | dose: 18.0 mg/kg/injection, schedule: Q01DX Z (ip), vehicle: water 98 % of control

C=CCOc1ccnc(OCC=C)n1
inactive: dose: 100.0 mg/kg/injection, schedule: Q01DX009 (ip), vehicle: saline 108 % of control | [3] 105 % of control | dose: 200.0 mg/kg/injection, schedule: Q01DX009 (ip), vehicle: saline 101 % of control | [4] 102 % of control | dose: 400.0 mg/kg/injection, schedule: Q01DX009 (ip), vehicle: saline 87 % of control | [5] 105 % of control

COC(=O)C1CC(=O)c2c(O)ccc(O)c2C1 (stereo not drawn)
inactive: dose: 12.5 mg/kg/injection, schedule: Q04DX003 (ip), vehicle: Klucel (hydroxypropylcellulose) (HPC) 96 % of control | dose: 25.0 mg/kg/injection, schedule: Q04DX003 (ip), vehicle: Klucel (hydroxypropylcellulose) (HPC) 104 % of control | dose: 50.0 mg/kg/injection, schedule: Q04DX003 (ip), vehicle: Klucel (hydroxypropylcellulose) (HPC) 98 % of control | dose: 100.0 mg/kg/injection, schedule: Q01DX001 (ip), vehicle: Klucel (hydroxypropylcellulose) (HPC) 92 % of control | [1] 100 % of control | dose: 200.0 mg/kg/injection, schedule: Q01DX001 (ip), vehicle: Klucel (hydroxypropylcellulose) (HPC) 92 % of control | [2] 101 % of control | dose: 400.0 mg/kg/injection, schedule: Q01DX001 (ip), vehicle: Klucel (hydroxypropylcellulose) (HPC) 90 % of control | [6] 106 % of control

COc1ccc(C(O)c2ccccc2C(=O)Nc2ccccc2)cc1 (stereo not drawn)
inactive: dose: 100.0 mg/kg/injection, schedule: Q01DX009 (ip), vehicle: saline with Tween-80 98 % of control | dose: 200.0 mg/kg/injection, schedule: Q01DX009 (ip), vehicle: saline with Tween-80 88 % of control | dose: 400.0 mg/kg/injection, schedule: Q01DX009 (ip), vehicle: saline with Tween-80 95 % of control

C=C[C@@](C)(O)CC/C=C(/C)CCC=C(C)C
inactive: dose: 6.0 mg/kg/injection, schedule: Q01DX009 (ip), vehicle: saline 112 % of control | dose: 12.0 mg/kg/injection, schedule: Q01DX009 (ip), vehicle: saline 100 % of control | dose: 25.0 mg/kg/injection, schedule: Q01DX009 (ip), vehicle: saline 101 % of control | dose: 50.0 mg/kg/injection, schedule: Q01DX009 (ip), vehicle: saline 106 % of control | [3] 97 % of control | [4] 96 % of control | [5] 102 % of control

COC(=O)c1ccc2ccccc2n1
inactive: dose: 37.5 mg/kg/injection, schedule: Q04DX003 (ip), vehicle: saline 112 % of control | dose: 75.0 mg/kg/injection, schedule: Q01DX001 (ip), vehicle: saline 112 % of control | dose: 75.0 mg/kg/injection, schedule: Q04DX003 (ip), vehicle: saline 93 % of control | dose: 150.0 mg/kg/injection, schedule: Q01DX001 (ip), vehicle: saline 86 % of control | dose: 150.0 mg/kg/injection, schedule: Q04DX003 (ip), vehicle: saline 93 % of control

CC1(C)C2(SCCS2)C(C)(C)C12SCCS2
inactive: dose: 100.0 mg/kg/injection, schedule: Q01DX009 (ip), vehicle: Klucel (hydroxypropylcellulose) (HPC) 96 % of control | dose: 200.0 mg/kg/injection, schedule: Q01DX009 (ip), vehicle: Klucel (hydroxypropylcellulose) (HPC) 95 % of control | dose: 400.0 mg/kg/injection, schedule: Q01DX009 (ip), vehicle: Klucel (hydroxypropylcellulose) (HPC) 104 % of control

O=[N+]([O-])c1ccc2c3c(ccc(Br)c13)CC2
inactive: dose: 100.0 mg/kg/injection, schedule: Q01DX009 (ip), vehicle: saline sonified 103 % of control | [1] 106 % of control | dose: 200.0 mg/kg/injection, schedule: Q01DX009 (ip), vehicle: saline sonified 103 % of control | [2] 98 % of control | dose: 400.0 mg/kg/injection, schedule: Q01DX009 (ip), vehicle: saline sonified 100 % of control | [6] 92 % of control

CCCCCCCCCCP(=S)(CCCC)CCCC
inactive: [1] 98 % of control | [2] 101 % of control | [6] 104 % of control
